{
  "source": "patent US20030031723A1",
  "about": "“Formulation and method for preparation of rapid dispersion spheroids which can be heavily titrated” (priority 2001, published 2003)",
  "assay": "quantity of water absorbed by the same mass (100 g) of excipients",
  "format": "physicochemical",
  "text": "Below are some examples supporting this statement, which test the quantity of water absorbed by the same mass (100 g) of excipients of different types: […]",
  "data": [
    {"smiles": "OC[C@H]1O[C@@H](O[C@H]2[C@H](O)[C@@H](O)C(O)O[C@@H]2CO)[C@H](O)[C@@H](O)[C@H]1O", "note": "(stereo partly shown) [Lactose]", "values": [
      {"measurement": "AMOUNT OF WATER ABSORBED PER 100 g OF EXCIPIENT", "value": 15, "unit": "g"}
    ]}
  ]
}
